Entries after “also recorded” stand apart in the source; their conditions may differ.
Tests used:
α-glucosidase [1] = biological target: T1, α-glucosidase (Saccharomyces cerevisiae, UniProt P53341); settings: cited from earlier work
T1 construct: purchased Sigma-Aldrich

[2] = biological target: T2, α-Glucosidase (Saccharomyces cerevisiae, EC3.2.1.20) (Saccharomyces cerevisiae, UniProt P53341); assay: In vitro α-glucosidase inhibition assay; type: biochemical
T2 construct: purchased Sigma-Aldrich
Experimental: α-Glucosidase (Saccharomyces cerevisiae, EC3.2.1.20, 20 U/mg) and the substrate, […] (p-NPG) were purchased from Sigma-Aldrich and the assay was performed exactly according to our previous report. In this respect, various concentrations of each synthesized compound dissolved in DMSO, were added to potassium phosphate buffer (50 mM, pH 6.8) including enzyme (at final concentration of 0.1 U/mL), in a 96-well plate. After a 10-min incubation at 37 °C, p-NPG was added to each well to achieve final concentration of 4 mM. Then, the plate was re-incubated at 37 °C for 20 min. It should be noted that the final concentration of DMSO in each enzymatic solution was 10%. Finally, the change in the absorbance was measured at 405 nm using spectrophotometer (Synergy HTX Multi-Mode Microplate Reader–BioTek, Germany). […] The percentage of inhibition for compounds and control was calculated using Eq. (1):1 Inhibition%=ODnegative control-ODsample/ODnegative control×100OD=optical density at 405 nm.
IC50 values were calculated from the nonlinear regression curve using the Logit method.

α-glucosidase [3] = biological target: T1, α-glucosidase; assay: Enzyme kinetic studies (Lineweaver–Burk plot); type: biochemical; settings: for Ki: p-NPG 2–16 mM
From the text: A Lineweaver–Burk plot was generated to identify the type of inhibition and the Michaelis–Menten constant.

α-glucosidase [4] = biological target: T1, α-glucosidase; assay: Fluorescence spectroscopy measurements; type: binding; settings: 9e 0–1.0 μM, excitation 280 nm, emission maximum 340 nm, phosphate buffer 50 mM pH 6.8
Experimental: Compound 9e at different concentrations (0–1.0 µM) was added into the 3 mL solution containing a fixed amount of α-glucosidase (0.1 U/mL). All mixtures were held for 10 min to equilibrate before measurements. Then, the fluorescence emission spectra were measured from 300 to 450 nm at the excitation wavelength of 280 nm on a Synergy HTX multi-mode reader (Biotek Instruments, Winooski, VT, USA) equipped with a 1.0 cm quartz cell holder. The fluorescence spectra of the buffer containing compound 9e in the absence of the enzyme were subtracted as the background fluorescence.

α-glucosidase [5] = biological target: T1, α-glucosidase; assay: Thermodynamic analysis (thermal denaturation followed by fluorescence)
Experimental: Thermodynamic analysis was performed as described by Mojtabavi et al., the fluorescent intensity data were plotted as a function of temperature, and the thermodynamic profile was computed[48],[49]. Therefore, the denatured fraction (FD) of protein was calculated from Eq. (2), assuming a two-state mechanism for the protein denaturation:2 FD=YN-Yobs/YN-YD.
In Eq. (2), Yobs, YN, and YD are the observed […] characteristics of a fully native and denatured conformation, respectively. Equation (3) was used to calculate the apparent equilibrium constant (K) for a reversible denaturation process between native and denatured protein states:3 K=FD/1-FD=Yobs-YD/YN-YD.
The standard Gibbs free energy change (ΔG°) for protein denaturation is given by the Eq. (4):4 ΔG^^∘=GD^∘-GN^∘=-RTlnK, where T and R are the absolute temperature and the universal gas constant, respectively. The Gibbs free energy (ΔG°) is the most valuable standard of protein conformational stability in thermal denaturation. The integrated Gibbs–Helmholtz equation was utilized for measuring changes in the Gibbs energy of a system as a function of temperature (Eq. (5)):5 ΔG^^∘=ΔHm^∘1-T/Tm-ΔCpTm-T+TLnT/Tm, where ΔCp is the heat capacity of protein denaturation. The ΔCp (11.6 kJ/mol K) of the α-glucosidase denaturation was taken from van der Kamp et al. report. In thermal denaturation, Tm is the temperature at which the protein is half denatured. ΔH°m and ΔS°m are the standard enthalpy and entropy of denaturation. The standard entropy was calculated from a relation between the standard […] of denaturation as bellow: ΔH=TmΔS.

T1 sequence (P53341 whole entry): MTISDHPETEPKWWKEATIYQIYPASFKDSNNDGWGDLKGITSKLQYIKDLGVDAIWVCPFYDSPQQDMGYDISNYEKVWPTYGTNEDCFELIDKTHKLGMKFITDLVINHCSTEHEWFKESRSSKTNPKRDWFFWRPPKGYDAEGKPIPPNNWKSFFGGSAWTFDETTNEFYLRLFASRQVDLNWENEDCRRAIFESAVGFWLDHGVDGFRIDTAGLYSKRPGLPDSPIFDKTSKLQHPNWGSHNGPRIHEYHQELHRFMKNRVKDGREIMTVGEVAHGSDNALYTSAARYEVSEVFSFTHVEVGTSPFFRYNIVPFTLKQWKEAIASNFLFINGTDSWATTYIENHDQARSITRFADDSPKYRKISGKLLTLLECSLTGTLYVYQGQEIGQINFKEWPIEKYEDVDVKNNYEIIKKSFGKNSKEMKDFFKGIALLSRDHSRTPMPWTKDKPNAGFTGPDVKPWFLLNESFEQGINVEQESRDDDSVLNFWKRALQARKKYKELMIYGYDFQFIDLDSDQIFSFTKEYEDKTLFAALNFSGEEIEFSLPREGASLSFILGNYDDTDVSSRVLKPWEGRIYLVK
T2 sequence (P53341 whole entry): as above

## CCc1ccc(NC(=O)Cn2cc(COc3ccc(-c4nc5ccccc5[nH]4)cc3)nn2)cc1 [B]
α-glucosidase [1]
  mode of inhibition: competitive

## COc1cc(C=NNC(=O)CC#N)ccc1OCc1cn(Cc2ccccc2)nn1 [Compound 9a, N′-(4-((1-benzyl-1H-1,2,3-triazol-4-yl)methoxy)-3-methoxybenzylidene)-2-cyanoacetohydrazide]
[2]
  IC50: > 750 µM

## COc1cc(C=NNC(=O)CC#N)ccc1OCc1cn(Cc2ccccc2F)nn1 [Compound 9b, 2-Cyano-N′-(4-((1-(2-fluorobenzyl)-1H-1,2,3-triazol-4-yl)methoxy)-3-methoxybenzylidene)acetohydrazide]
[2]
  IC50: 1.5 ± 0.01 µM
α-glucosidase [3]
  type of inhibition: uncompetitive inhibition; also recorded: uncompetitively
  Ki: 0.43 µM

## COc1cc(C=NNC(=O)CC#N)ccc1OCc1cn(Cc2ccc(F)cc2)nn1 [Compound 9c, 2-Cyano-N′-(4-((1-(4-fluorobenzyl)-1H-1,2,3-triazol-4-yl)methoxy)-3-methoxybenzylidene)acetohydrazide]
[2]
  IC50: 9.73 ± 0.3 µM

## COc1cc(C=NNC(=O)CC#N)ccc1OCc1cn(Cc2ccccc2Cl)nn1 [Compound 9d, N′-(4-((1-(2-chlorobenzyl)-1H-1,2,3-triazol-4-yl)methoxy)-3-methoxybenzylidene)-2-cyanoacetohydrazide]
[2]
  IC50: 14 ± 0.8 µM

## COc1cc(C=NNC(=O)CC#N)ccc1OCc1cn(Cc2ccc(Cl)cc2)nn1 [Compound 9e, N′-(4-((1-(4-chlorobenzyl)-1H-1,2,3-triazol-4-yl)methoxy)-3-methoxybenzylidene)-2-cyanoacetohydrazide]
α-glucosidase [4]
  change of α-glucosidase fluorescence: significant increase in fluorescence intensity
[2]
  IC50: 1 ± 0.01 µM
  fold better potency than the standard drug acarbose: 754 fold
α-glucosidase [5]; compound 9e 0.25 µM
  Tm of α-glucosidase: 316 K
  ΔHm° of α-glucosidase denaturation: 22.58 kcal/mol
  ΔSm° of α-glucosidase denaturation: 298.95 J mol^−1 K^−1
α-glucosidase [5]; compound 9e 0.50 µM
  Tm of α-glucosidase: 315 K
  ΔHm° of α-glucosidase denaturation: 26.974 kcal/mol
  ΔSm° of α-glucosidase denaturation: 358.28 J mol^−1 K^−1
α-glucosidase [5]; compound 9e 0.75 µM
  Tm of α-glucosidase: 313 K
  ΔHm° of α-glucosidase denaturation: 42.326 kcal/mol
  ΔSm° of α-glucosidase denaturation: 565.76 J mol^−1 K^−1
α-glucosidase [5]; compound 9e 1.0 µM
  Tm of α-glucosidase: 311 K
  ΔHm° of α-glucosidase denaturation: 142.81 kcal/mol
  ΔSm° of α-glucosidase denaturation: 1921.22 J mol^−1 K^−1
α-glucosidase [3]
  type of inhibition: uncompetitive inhibition; also recorded: uncompetitively
  Ki: 0.24 µM

## COc1cc(C=NNC(=O)CC#N)ccc1OCc1cn(Cc2ccccc2C)nn1 [Compound 9f, 2-Cyano-N′-(3-methoxy-4-((1-(2-methylbenzyl)-1H-1,2,3-triazol-4-yl)methoxy)benzylidene)acetohydrazide]
[2]
  IC50: 28 ± 0.1 µM

## COc1cc(C=NNC(=O)CC#N)ccc1OCc1cn(Cc2ccc(C)cc2)nn1 [Compound 9g, 2-Cyano-N′-(3-methoxy-4-((1-(4-methylbenzyl)-1H-1,2,3-triazol-4-yl)methoxy)benzylidene)acetohydrazide]
[2]
  IC50: 22.8 ± 0.6 µM

## N#CCC(=O)NN=Cc1ccc(OCc2cn(Cc3ccccc3)nn2)cc1 [Compound 9h, N′-(4-((1-benzyl-1H-1,2,3-triazol-4-yl)methoxy)benzylidene)-2-cyanoacetohydrazide]
[2]
  IC50: 271.2 ± 0.3 µM

## N#CCC(=O)NN=Cc1ccc(OCc2cn(Cc3ccccc3F)nn2)cc1 [Compound 9i, 2-Cyano-N′-(4-((1-(2-fluorobenzyl)-1H-1,2,3-triazol-4-yl)methoxy)benzylidene)acetohydrazide]
[2]
  IC50: 45.89 ± 0.1 µM
α-glucosidase [3]
  type of inhibition: competitive inhibition
  Ki: 75 µM

## N#CCC(=O)NN=Cc1ccc(OCc2cn(Cc3ccc(F)cc3)nn2)cc1 [Compound 9j, 2-Cyano-N′-(4-((1-(4-fluorobenzyl)-1H-1,2,3-triazol-4-yl)methoxy)benzylidene)acetohydrazide]
[2]
  IC50: 56.6 ± 0.7 µM

## N#CCC(=O)NN=Cc1ccc(OCc2cn(Cc3ccccc3Cl)nn2)cc1 [Compound 9k, N′-(4-((1-(2-chlorobenzyl)-1H-1,2,3-triazol-4-yl)methoxy)benzylidene)-2-cyanoacetohydrazide]
[2]
  IC50: 74.7 ± 2.8 µM

## N#CCC(=O)NN=Cc1ccc(OCc2cn(Cc3ccc(Cl)cc3)nn2)cc1 [Compound 9l, N′-(4-((1-(4-chlorobenzyl)-1H-1,2,3-triazol-4-yl)methoxy)benzylidene)-2-cyanoacetohydrazide]
[2]
  IC50: 21.66 ± 0.12 µM
α-glucosidase [3]
  type of inhibition: competitive inhibition
  Ki: 85 µM

## Cc1ccccc1Cn1cc(COc2ccc(C=NNC(=O)CC#N)cc2)nn1 [Compound 9m, 2-Cyano-N′-(4-((1-(2-methylbenzyl)-1H-1,2,3-triazol-4-yl)methoxy)benzylidene)acetohydrazide]
[2]
  IC50: 11.3 ± 0.2 µM

## Cc1ccc(Cn2cc(COc3ccc(C=NNC(=O)CC#N)cc3)nn2)cc1 [Compound 9n, 2-Cyano-N′-(4-((1-(4-methylbenzyl)-1H-1,2,3-triazol-4-yl)methoxy)benzylidene)acetohydrazide]
[2]
  IC50: 82.4 ± 1.3 µM

## O=c1oc2ccccc2c(O)c1C(c1ccc(OCc2cn(Cc3ccccc3Cl)nn2)cc1)c1c(O)c2ccccc2oc1=O [Compound A]
α-glucosidase [1]
  mode of inhibition: competitive

## O=C1Nc2ccccc2/C1=N/N=C/c1ccc(OCc2cn(Cc3ccccc3F)nn2)cc1 [Compound C]
α-glucosidase [1]
  fold improvement in the inhibitory activity compared to acarbose: 46 fold
